{"source": "patent US20230028918A1", "about": "“COMPOSITIONS COMPRISING PKC-BETA INHIBITORS AND PROCESSES FOR THE PREPARATION THEREOF” (priority 2019, published 2023)", "key": {"Human PKC delta": {"biological_target": "Human PKC delta (Homo sapiens, UniProt Q05655)", "sequence (Q05655 whole entry)": "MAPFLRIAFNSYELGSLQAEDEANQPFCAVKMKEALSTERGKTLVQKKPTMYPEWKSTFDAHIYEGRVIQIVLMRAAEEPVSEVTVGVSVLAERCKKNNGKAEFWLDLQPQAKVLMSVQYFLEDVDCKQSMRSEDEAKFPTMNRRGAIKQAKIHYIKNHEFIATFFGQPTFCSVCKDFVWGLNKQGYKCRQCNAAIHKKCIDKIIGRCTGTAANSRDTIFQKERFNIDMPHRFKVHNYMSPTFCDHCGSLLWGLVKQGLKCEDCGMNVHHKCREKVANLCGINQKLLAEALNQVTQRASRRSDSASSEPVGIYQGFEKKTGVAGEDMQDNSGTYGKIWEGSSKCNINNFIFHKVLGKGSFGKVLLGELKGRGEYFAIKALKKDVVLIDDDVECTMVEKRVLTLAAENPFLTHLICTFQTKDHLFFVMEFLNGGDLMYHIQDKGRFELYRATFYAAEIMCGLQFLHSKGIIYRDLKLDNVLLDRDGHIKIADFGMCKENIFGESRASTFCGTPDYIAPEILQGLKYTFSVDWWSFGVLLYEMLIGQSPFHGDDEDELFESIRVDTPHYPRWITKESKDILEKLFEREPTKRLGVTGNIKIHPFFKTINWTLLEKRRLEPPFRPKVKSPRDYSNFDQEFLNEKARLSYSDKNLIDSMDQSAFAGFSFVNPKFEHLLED", "test": "PKC inhibition, in vitro enzyme assay", "type": "biochemical", "description": "(§1) The methods for these determinations have been described (Grant, et al. 2010, Eur. J. Pharmacol. 627:16-25)."}, "pSHP2 (PKCβ cell assay)": {"tested_on": "pSHP2 (PKCβ cell assay)", "test": "pSHP2 (PKCβ cell assay)", "type": "cell-based", "description": "as §1"}, "Interleukin-8 release": {"tested_on": "Interleukin-8 release", "test": "Interleukin-8 release", "type": "cell-based", "description": "as §1"}, "PKCβ signaling": {"tested_on": "PKCβ signaling", "test": "PKCβ signaling assay: SERBP1 phosphorylation after PMA + ionomycin in whole blood of CLL/SLL patients dosed with Compound A", "type": "in vivo, human", "conditions": "for inhibition at 100 mg / inhibition at 200 mg / inhibition at 250 mg: Homo sapiens", "protocol": "A phosphor-flow assay was employed to measure the phosphorylation of SERBP1, a novel substrate for PKCP. Whole blood samples were taken at the appropriate time points from CLL patients receiving compound A as part of a phase 1 study, and were shipped overnight and processed for testing the next day. Whole blood was stimulated with PMA+ionomycin, cells were permeabilized, and the amount of SERBP1 phophorylation was measured. The reported data are the CD19+pSERBP1+ population, normalized to each patient's own unstimulated sample at the corresponding time point.\nTo monitor PKCβ mediated signaling, a biomarker marker assay was developed using Alexa-647 label anti-phospho_SERBP1 antibody.\nBriefly, whole blood specimens from each patient was drawn into sodium citrate collection tubes. Samples will be shipped overnight to the flow cytometry lab for processing and testing\nDuplicates will be prepared for each treatment condition per donor. The following conditions will be prepared for each donor, unstimulated and PMA and ionomycin stimulated samples. Whole blood 200 μL will be placed in appropriate size cryovial. The samples will be treated as described in Table 1 and incubated at 37° C., 5.0% CO2 for 25-30 minutes.\nFollowing stimulation 2 mL 1×BD FACSLyse will be added, then vortexed and incubated for 12-15 minutes in the dark at ART. Samples will be stored immediately at −80° C. until testing.\nSamples from each subject will be processed in batches with all timepoints and include a normal human control unstimulated and stimulated sample. All samples will be processed and collected in singlet.\nFrozen samples will be thawed by placing samples in a 37° C. water or bead bath. Sample will be transferred to tubes and centrifuged at 1700 rpm, for 5 minutes at ambient room temperature (ART) with Brake on. Samples will be decanted and washed twice with 1 mL Stain Buffer (FBS). Samples will be resuspended in 200 μL Stain Buffer (FBS) and […] appropriate volume of fluorochrome-conjugated monoclonal surface antibodies will be added (Table 2).\nSamples will be hand mixed and incubated for 15-20 minutes in the dark at ART. Samples will be washed twice with 1 mL Stain Buffer (FBS). After wash, 200 μL Fix/Perm buffer will be added to each sample, then vortexed and incubated for 30-35 minutes in the dark at 2-8° C. Samples will be washed twice with 1 ml 1× Permeabilization Buffer (Perm Buffer). 100 μL of 1× Perm Buffer and appropriate volume of pSERBP1 AF647 will be added (documented in the study paperwork) and incubated for 30-35 minutes in the dark at 2-8° C. Samples will be washed twice with 1 mL 1× Perm Buffer. Samples will be resuspended in 125 μL 1× Stain Buffer FBS for acquisition on the flow cytometer.\nFlow cytometric data acquisition will be performed using the BD FACSCantoII™ which evaluates two scatter parameters and up to eight color fluorescence channels. Data will be acquired using BD FACSDiva™ software (version 6.1.3 or higher). The samples will be acquired to distinguish the cells of interest from other cell types in the peripheral blood by electronic gating on the basis of CD45 versus side scatter. The instrument will be set to collect 50,000 CD45+ lymphocyte events. Dual combination cytograms and/or histograms will be generated to illustrate the LL (−/−), LR (+/−), UL (−/+), UR (+/+) and/or interval gate for the fraction of the cells. The Flow Cytograms will be printed and maintained with study binder.\nThe Median Fluorescence Intensity for the AF647 channel will be reported for each population (CD45, CD3, CD19 and CD20). Relative % data will also be reported for CD3+, CD3−CD19+, CD3−CD20+, CD3−CD19+HLADR+CD86+, and CD3−CD20+HLADR+CD86+. Data will be analyzed by Microsoft Excel to obtain descriptive statistics; i.e. Mean, SD, and CV %.\nThe flow cytometry data are analyzed to determine the amount of SERBP1 phosphorylation following PMA/ionomycin stimulation."}, "[1]": {"test": "Compound A plasma concentration and food effect in patients", "type": "in vivo, human", "conditions": "for Compound A Plasma Concentration: Day 8 pre-dose trough (Cmin); for concentration at 3 h post-dose on Day 8: human, plasma, Day 8, 3 h post-dose peak"}, "Clinical tolerability": {"test": "Clinical tolerability", "type": "in vivo", "conditions": "human, plasma, oral; clinical trial, compound taken with food; read-out: Plasma Cmax that is well-tolerated"}, "primary CLL cells [2]": {"tested_on": "primary CLL cells", "test": "Immunoblot of BCR signaling in primary CLL cells", "type": "cell-based", "conditions": "versus vehicle control"}, "primary CLL cells [3]": {"tested_on": "primary CLL cells", "test": "CCL3 and CCL4 secretion by primary CLL cells (ELISA)", "type": "cell-based", "conditions": "5 μM, presence or absence of anti-IgM ligation, 24 hrs"}, "[4]": {"tested_on": "primary CLL cells with WT and C481S BTK", "test": "CD86 and HLA-DR expression on CpG-stimulated primary CLL cells with WT and C481S BTK (flow cytometry)", "type": "cell-based", "conditions": "up to 10 μM, CpG stimulation, 48 hrs, baseline and post-relapse samples from ibrutinib treated patients", "procedure": "Cryopreserved baseline samples and post-relapse samples from ibrutinib treated patients (n=2) were thawed and treated with up to 10 μM compound A and stimulated with 3.2 M CpG. CD86 (FIG. 3A) and HLA-DR (FIG. 3B) expression was measured by flow cytometry at 48 hrs. Mean fluorescence intensity (MFI) is reported. Error bars represent standard deviation."}, "physchem": {"test": "physchem", "conditions": "pH 7"}}, "note": "Where two headings read alike, the source gives them in different places."}
{"smiles": "Cc1ncc(F)c(Nc2n[nH]c3c2CN(C(=O)N2C[C@@H](C)N(CC4CCOCC4)C[C@@H]2C)C3(C)C)n1", "note": "[Compound A, 5-{[(2S,5R)-2,5-dimethyl-4-(tetrahydro-2H-pyran-4-ylmethyl)piperazin-1-yl]carbonyl}-N-(5-fluoro-2-methylpyrimidin-4-yl)-6,6-dimethyl-1,4,5,6-tetrahydropyrrolo[3,4-c]pyrazol-3-amine]", "values": [{"measurement": "Inhibition of PKC delta", "setting": "Human PKC delta", "value": "does not significantly inhibit"}, {"measurement": "IC50", "setting": "pSHP2 (PKCβ cell assay)", "value": 9.8, "unit": "nM"}, {"measurement": "IC50", "setting": "Interleukin-8 release", "value": 39, "unit": "nM"}, {"measurement": "Mean Stimulation at Day 8 3 h Post-Dose Peak", "setting": "PKCβ signaling; 100 mg BID, N = 1", "value": 96, "unit": "%"}, {"measurement": "Mean Stimulation at Day 8 Pre-Dose Trough (Cmin)", "setting": "PKCβ signaling; 100 mg BID, N = 1", "value": 109, "unit": "%"}, {"measurement": "Mean Stimulation at Day 8 3 h Post-Dose Peak", "setting": "PKCβ signaling; 200 mg BID, N = 3", "value": 100, "unit": "%"}, {"measurement": "Mean Stimulation at Day 8 Pre-Dose Trough (Cmin)", "setting": "PKCβ signaling; 200 mg BID, N = 3", "value": 121, "unit": "%"}, {"measurement": "Mean Stimulation at Day 8 3 h Post-Dose Peak", "setting": "PKCβ signaling; 250 mg BID, N = 3", "value": 102, "unit": "%"}, {"measurement": "Mean Stimulation at Day 8 Pre-Dose Trough (Cmin)", "setting": "PKCβ signaling; 250 mg BID, N = 3", "value": 104, "unit": "%"}, {"measurement": "Phosphorylation of SERBP1 (CD19+pSERBP1+ population)", "setting": "PKCβ signaling; CLL patients in phase 1 study, PMA + ionomycin stimulated whole blood", "value": "inhibits phosphorylation of SERBP1 in vivo"}, {"measurement": "inhibition at 100 mg", "setting": "PKCβ signaling; 192 h, 100 mg BID, Day 8 pre-dose, read-out: % Inhibition of Stimulation at Trough (Cmin)", "value": 51, "unit": "%"}, {"measurement": "inhibition at 200 mg", "setting": "PKCβ signaling; 192 h, 200 mg BID, Day 8 pre-dose, read-out: % Inhibition of Stimulation at Trough (Cmin)", "value": 70, "unit": "%"}, {"measurement": "inhibition at 250 mg", "setting": "PKCβ signaling; 192 h, 250 mg BID, Day 8 pre-dose, read-out: % Inhibition of Stimulation at Trough (Cmin)", "value": 97, "unit": "%"}, {"measurement": "inhibition at 100 mg", "setting": "PKCβ signaling; 100 mg BID, Day 8, 3 h post-dose, read-out: % Inhibition of Stimulation at Peak", "value": 122, "unit": "%"}, {"measurement": "inhibition at 200 mg", "setting": "PKCβ signaling; 200 mg BID, Day 8, 3 h post-dose, read-out: % Inhibition of Stimulation at Peak", "value": 102, "unit": "%"}, {"measurement": "inhibition at 250 mg", "setting": "PKCβ signaling; 250 mg BID, Day 8, 3 h post-dose, read-out: % Inhibition of Stimulation at Peak", "value": 98, "unit": "%"}, {"measurement": "Plasma concentration that completely suppresses PKCβ signaling", "setting": "PKCβ signaling; whole blood samples from patients with CLL or SLL", "value": "500 to 600", "unit": "ng/mL"}, {"measurement": "Compound A Plasma Concentration", "setting": "[1]; 100 mg BID", "value": 186, "unit": "ng/mL"}, {"measurement": "Compound A Plasma Concentration", "setting": "[1]; 200 mg BID", "value": 295, "unit": "ng/mL"}, {"measurement": "Compound A Plasma Concentration", "setting": "[1]; 250 mg BID", "value": 542, "unit": "ng/mL"}, {"measurement": "Effect of food on the PK profile", "setting": "[1]; clinical trial data", "value": "does not have a significant effect"}, {"measurement": "concentration at 3 h post-dose on Day 8", "setting": "[1]; 100 mg BID", "value": 587, "unit": "ng/mL"}, {"measurement": "concentration at 3 h post-dose on Day 8", "setting": "[1]; 200 mg BID", "value": 837, "unit": "ng/mL"}, {"measurement": "concentration at 3 h post-dose on Day 8", "setting": "[1]; 250 mg BID", "value": 1310, "unit": "ng/mL"}, {"measurement": "Effect of food on the pharmacokinetics", "setting": "[1]; single dose of the IR formulations", "value": "no significant effect"}, {"measurement": "Cmax", "setting": "Clinical tolerability", "value": "~2000", "unit": "ng/mL"}, {"measurement": "Phosphorylation of PKCβ and downstream targets (pPKCβ, pERK, pIκBα, pGSK3β)", "setting": "primary CLL cells [2]", "value": "decreased phosphorylation"}, {"measurement": "CCL3 and CCL4 secretion", "setting": "primary CLL cells [3]", "value": "inhibition of pro-inflammatory cytokine expression"}, {"measurement": "CD86 and HLA-DR expression (MFI)", "setting": "[4]", "value": "reduces activation"}, {"measurement": "solubility at 24 h", "setting": "physchem", "value": 1040, "unit": "µg/mL"}]}
